The values below come from patent US8686150B2 (Sanofi, priority 2011, dated 2014).

The target of the assay is T1, human full-length recombinant PKC βII (Homo sapiens, UniProt P05771).
T1 construct: Active human full-length recombinant PKC βII; purchased Invitrogen GmbH, Darmstadt, Germany
Kind of assay: Determination of PKC βII inhibition (Caliper mobility-shift kinase assay, Fluorescein-RFARKGSLRQKNV peptide substrate). The format is biochemical. Particulars: example compounds at a final concentration of 1.14 μM (±0.15 μM). In short, it runs like this: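 Compounds were tested at 1.14 μM final. Enzyme was activated by PS, DAG and CaCl2 in Hepes pH 7.4 with MgCl2, with substrate 3 μM and ATP 120 μM as pre-mix concentrations. After 60 min at 32 °C and an EDTA stop, Caliper separation gave fractional turnover, which was normalised to no-compound and no-enzyme controls.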

T1 sequence (P05771 1-673 isoform P05771-2): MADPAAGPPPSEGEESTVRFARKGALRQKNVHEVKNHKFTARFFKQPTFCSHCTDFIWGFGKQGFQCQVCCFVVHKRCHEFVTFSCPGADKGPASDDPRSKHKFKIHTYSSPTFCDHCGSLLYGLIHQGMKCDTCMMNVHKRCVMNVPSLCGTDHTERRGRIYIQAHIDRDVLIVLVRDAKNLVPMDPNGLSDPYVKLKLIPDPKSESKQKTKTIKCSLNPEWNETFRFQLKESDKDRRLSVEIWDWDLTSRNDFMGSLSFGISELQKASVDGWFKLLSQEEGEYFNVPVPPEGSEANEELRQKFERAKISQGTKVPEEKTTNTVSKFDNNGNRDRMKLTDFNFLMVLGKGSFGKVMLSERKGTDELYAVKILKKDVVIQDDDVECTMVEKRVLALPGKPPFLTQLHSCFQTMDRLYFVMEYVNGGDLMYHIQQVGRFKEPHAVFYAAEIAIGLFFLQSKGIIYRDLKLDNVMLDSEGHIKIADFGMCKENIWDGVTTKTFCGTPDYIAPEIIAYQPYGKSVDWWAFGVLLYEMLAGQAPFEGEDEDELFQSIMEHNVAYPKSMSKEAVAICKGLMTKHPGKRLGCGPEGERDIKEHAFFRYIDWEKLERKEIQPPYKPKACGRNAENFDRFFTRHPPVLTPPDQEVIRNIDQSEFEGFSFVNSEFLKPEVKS

By inhibition is commonly meant the change of the read-out against control, counted positive when it falls. On to `Cc1n[nH]c2nc(-c3ccc(O)c(F)c3)cc(C(=O)N3CCNCC3c3cccnc3)c12` (stereo not drawn) [Example 327, [6-(3-Fluoro-4-hydroxy-phenyl)-3-methyl-1H-pyrazolo[3,4-b]pyridin-4-yl]-(2-pyridin-3-yl-piperazin-1-yl)-methanone], for which the inhibition at 1.14 µM stood at 92%.
With `COC(=O)[C@H]1CNCCN1C(=O)c1cc(-c2ccc(O)c(F)c2)nc2[nH]nc(C)c12` [Example 328, (R)-1-[6-(3-Fluoro-4-hydroxy-phenyl)-3-methyl-1H-pyrazolo[3,4-b]pyridine-4-carbonyl]-piperazine-2-carboxylic acid methyl ester] the figure was 80%; with `Cc1n[nH]c2nc(-c3ccc(O)c(F)c3)cc(C(=O)N3CCC4(CC3)CNC4)c12` [Example 329, (2,7-Diaza-spiro[3.5]non-7-yl)-[6-(3-fluoro-4-hydroxy-phenyl)-3-methyl-1H-pyrazolo[3,4-b]pyridin-4-yl]-methanone], 72%; with `Cc1n[nH]c2nc(-c3ccc(O)c(F)c3)cc(C(=O)N3CC4(CCNCC4)c4ccccc43)c12` [Example 330, (1,2-Dihydro-5-spiro[3H-indole-3,4′-piperidin]-1-yl)-[6-(3-fluoro-4-hydroxy-phenyl)-3-methyl-1H-pyrazolo[3,4-b]pyridin-4-yl]-methanone], 45%.
With `Cc1n[nH]c2nc(-c3ccc(O)c(F)c3)cc(C(=O)N(C)C3CCN(C)CC3)c12` [Example 331, 6-(3-Fluoro-4-hydroxy-phenyl)-3-methyl-1H-pyrazolo[3,4-b]pyridine-4-carboxylic acid methyl-(1-methyl-piperidin-4-yl)-amide] the figure was 41%; with `CCN1CCCC(NC(=O)c2cc(-c3ccc(O)c(F)c3)nc3[nH]nc(C)c23)C1` (stereo not drawn) [Example 332, 6-(3-Fluoro-4-hydroxy-phenyl)-3-methyl-1H-pyrazolo[3,4-b]pyridine-4-carboxylic acid (1-ethyl-piperidin-3-yl)-amide], 63%; with `Cc1n[nH]c2nc(-c3ccc(O)c(F)c3)cc(C(=O)NC3CN4CCC3CC4)c12` (stereo not drawn) [Example 333, 6-(3-Fluoro-4-hydroxy-phenyl)-3-methyl-1H-pyrazolo[3,4-b]pyridine-4-carboxylic acid (1-aza-bicyclo[2.2.2]oct-3-yl)-amide], 67%.
Then `Cc1n[nH]c2nc(-c3ccc(O)c(F)c3)cc(C(=O)N3C[C@]4(C)CN(C)C[C@](C)(C3)C4O)c12` (stereo partly drawn) [Example 334, [6-(3-Fluoro-4-hydroxy-phenyl)-3-methyl-1H-pyrazolo[3,4-b]pyridin-4-yl]-((1S,5R)-9-hydroxy-1,5,7-trimethyl-3,7-diaza-bicyclo[3.3.1]non-3-yl)-methanone], with 53%; and `Cc1n[nH]c2nc(-c3ccc(O)c(F)c3)cc(C(=O)N(C)C3CCNCC3)c12` [Example 335, 6-(3-Fluoro-4-hydroxy-phenyl)-3-methyl-1H-pyrazolo[3,4-b]pyridine-4-carboxylic acid methyl-piperidin-4-yl-amide], with 61%; and `Cc1n[nH]c2nc(-c3ccc(O)c(F)c3)cc(C(=O)N3CCC(N)C3)c12` (stereo not drawn) [Example 336, (3-Amino-pyrrolidin-1-yl)-[6-(3-fluoro-4-hydroxy-phenyl)-3-methyl-1H-pyrazolo[3,4-b]pyridin-4-yl]-methanone], with 73%.
For `Cc1n[nH]c2nc(-c3ccc(O)c(F)c3)cc(C(=O)N3CCN[C@H](C)C3)c12` [Example 337, [6-(3-Fluoro-4-hydroxy-phenyl)-3-methyl-1H-pyrazolo[3,4-b]pyridin-4-yl]-((R)-3-methyl-piperazin-1-yl)-methanone], the inhibition at 1.14 µM was determined as 93%.
Then `Cc1n[nH]c2nc(-c3ccc(O)c(F)c3)cc(C(=O)NC3CCC(N)CC3)c12` (stereo not drawn) [Example 338, 6-(3-Fluoro-4-hydroxy-phenyl)-3-methyl-1H-pyrazolo[3,4-b]pyridine-4-carboxylic acid (4-amino-cyclohexyl)-amide], with 68%; and `Cc1n[nH]c2nc(-c3ccc(O)c(F)c3)cc(C(=O)N3CC4(CCNCC4)C3)c12` [Example 339, (2,7-Diaza-spiro[3.5]non-2-yl)-[6-(3-fluoro-4-hydroxy-phenyl)-3-methyl-1H-pyrazolo[3,4-b]pyridin-4-yl]-methanone], with 73%.
`Cc1n[nH]c2nc(-c3ccc(O)c(F)c3)cc(C(=O)N3CCC4(CCNC4)C3)c12` (stereo not drawn) [Example 340, (2,7-Diaza-spiro[4.4]non-2-yl)-[6-(3-fluoro-4-hydroxy-phenyl)-3-methyl-1H-pyrazolo[3,4-b]pyridin-4-yl]-methanone]: the inhibition at 1.14 µM stood at 67%.
As to `Cc1n[nH]c2nc(-c3ccc(O)c(F)c3)cc(C(=O)N3CCC4(CCNC4)CC3)c12` [Example 341, (2,8-Diaza-spiro[4.5]dec-8-yl)-[6-(3-fluoro-4-hydroxy-phenyl)-3-methyl-1H-pyrazolo[3,4-b]pyridin-4-yl]-methanone], the inhibition at 1.14 µM turned out to be 53%.
With `Cc1n[nH]c2nc(-c3ccc(O)c(F)c3)cc(C(=O)N3CCC4(CC3)CNCCO4)c12` [Example 342, [6-(3-Fluoro-4-hydroxy-phenyl)-3-methyl-1H-pyrazolo[3,4-b]pyridin-4-yl]-(1-oxa-4,9-diaza-spiro[5.5]undec-9-yl)-methanone] the figure was 60%; with `Cc1n[nH]c2nc(-c3ccc(O)c(F)c3)cc(C(=O)N3CCC4(CCNCC4)C3)c12` [Example 343, (2,8-Diaza-spiro[4.5]dec-2-yl)-[6-(3-fluoro-4-hydroxy-phenyl)-3-methyl-1H-pyrazolo[3,4-b]pyridin-4-yl]-methanone], 49%; with `Cc1n[nH]c2nc(-c3ccc(O)c(F)c3)cc(C(=O)N3CCOC4(CCNCC4)C3)c12` [Example 344, [6-(3-Fluoro-4-hydroxy-phenyl)-3-methyl-1H-pyrazolo[3,4-b]pyridin-4-yl]-(1-oxa-4,9-diaza-spiro[5.5]undec-4-yl)-methanone], 64%.
Then `Cc1n[nH]c2nc(-c3ccc(O)c(F)c3)cc(C(=O)N3CCCC4(CNCCO4)C3)c12` (stereo not drawn) [Example 345, [6-(3-Fluoro-4-hydroxy-phenyl)-3-methyl-1H-pyrazolo[3,4-b]pyridin-4-yl]-(1-oxa-4,8-diaza-spiro[5.5]undec-8-yl)-methanone], with 58%; and `Cc1n[nH]c2nc(-c3ccc(O)c(F)c3)cc(C(=O)N3CCCC4(CCNC4)C3)c12` (stereo not drawn) [Example 346, (2,7-Diaza-spiro[4.5]dec-7-yl)-[6-(3-fluoro-4-hydroxy-phenyl)-3-methyl-1H-pyrazolo[3,4-b]pyridin-4-yl]-methanone], with 59%.
With `Cc1n[nH]c2nc(-c3ccc(O)c(F)c3)cc(C(=O)N3CC[C@@H](N(C)C)C3)c12` [Example 347, ((R)-3-Dimethylamino-pyrrolidin-1-yl)-[6-(3-fluoro-4-hydroxy-phenyl)-3-methyl-1H-pyrazolo[3,4-b]pyridin-4-yl]-methanone] the figure was 35%.
As for `Cc1n[nH]c2nc(-c3ccc(O)c(F)c3)cc(C(=O)N3CC[C@H](N(C)C)C3)c12` [Example 348, ((S)-3-Dimethylamino-pyrrolidin-1-yl)-[6-(3-fluoro-4-hydroxy-phenyl)-3-methyl-1H-pyrazolo[3,4-b]pyridin-4-yl]-methanone], the inhibition at 1.14 µM came out at 44%.
Then `Cc1n[nH]c2nc(-c3ccc(O)c(F)c3)cc(C(=O)NC3CCCNC3)c12` (stereo not drawn) [Example 349, 6-(3-Fluoro-4-hydroxy-phenyl)-3-methyl-1H-pyrazolo[3,4-b]pyridine-4-carboxylic acid piperidin-3-ylamide], with 81%.
Then `Cc1n[nH]c2nc(-c3ccc(O)c(F)c3)cc(C(=O)NC3CC4CC3CN4)c12` (stereo not drawn) [Example 350, 6-(3-Fluoro-4-hydroxy-phenyl)-3-methyl-1H-pyrazolo[3,4-b]pyridine-4-carboxylic acid (2-aza-bicyclo[2.2.1]hept-5-yl)-amide], with 77%; and `Cc1n[nH]c2nc(-c3ccc(O)c(F)c3)cc(C(=O)N3CCN[C@@H](CC(C)C)C3)c12` [Example 351, [6-(3-Fluoro-4-hydroxy-phenyl)-3-methyl-1H-pyrazolo[3,4-b]pyridin-4-yl]-((S)-3-isobutyl-piperazin-1-yl)-methanone], with 88%; and `Cc1n[nH]c2nc(-c3ccc(O)c(F)c3)cc(C(=O)N3CCNC(C)C3C)c12` (stereo not drawn) [Example 352, (2,3-Dimethyl-piperazin-1-yl)-[6-(3-fluoro-4-hydroxy-phenyl)-3-methyl-1H-pyrazolo[3,4-b]pyridin-4-yl]-methanone], with 84%.
Then `COC(=O)CC1CNCCN1C(=O)c1cc(-c2ccc(O)c(F)c2)nc2[nH]nc(C)c12` (stereo not drawn) [Example 353, {1-[6-(3-Fluoro-4-hydroxy-phenyl)-3-methyl-1H-pyrazolo[3,4-b]pyridine-4-carbonyl]-piperazin-2-yl}-acetic acid methyl ester], with 70%; and `Cc1n[nH]c2nc(-c3ccc(O)c(F)c3)cc(C(=O)NCC3CCNC3)c12` (stereo not drawn) [Example 354, 6-(3-Fluoro-4-hydroxy-phenyl)-3-methyl-1H-pyrazolo[3,4-b]pyridine-4-carboxylic acid (pyrrolidin-3-ylmethyl)-amide], with 52%; and `Cc1n[nH]c2nc(-c3ccc(O)c(F)c3)cc(C(=O)NC3CCCN(C)C3)c12` (stereo not drawn) [Example 355, 6-(3-Fluoro-4-hydroxy-phenyl)-3-methyl-1H-pyrazolo[3,4-b]pyridine-4-carboxylic acid (1-methyl-piperidin-3-yl)-amide], with 60%.
As to `CC(=O)N1CCN(C(=O)c2cc(-c3ccc(O)c(F)c3)nc3[nH]nc(C)c23)CC1` [Example 356, 1-{4-[6-(3-Fluoro-4-hydroxy-phenyl)-3-methyl-1H-pyrazolo[3,4-b]pyridine-4-carbonyl]-piperazin-1-yl}-ethanone], the inhibition at 1.14 µM is 31%.
